Zone of inhibition and MIC data for 21 compounds are collected here from ChEMBL document CHEMBL1153780, “Synthesis and antibacterial activity of some new thiazole and thiophene derivatives” (2009).

One may read the MIC as the lowest concentration found to suppress growth. A high value points to a need for much substance.

Converted amounts (≈) assume the structure as drawn.

Format in all cases: functional
The test system of experiment [1] is Bacillus thuringiensis. Nature of the experiment: Antibacterial activity against Bacillus thuringiensis at 2 mg/ml by agar diffusion method. The conditions noted are these: read-out: DIZ.
Experiment [2] deals with Escherichia coli. Nature of the experiment: Antibacterial activity against Escherichia coli at 2 mg/ml by agar diffusion method. The conditions noted are these: read-out: DIZ. In general terms: Agar diffusion results depend on both activity and mobility in agar.
Experiment [3] deals with Bacillus thuringiensis. Nature of the experiment: Antibacterial activity against Bacillus thuringiensis by twofold serial broth dilution method.
For experiment [4], the system named is Escherichia coli. Nature of the experiment: Antibacterial activity against Escherichia coli by twofold serial broth dilution method.

Turning to `COc1ccc(/C=c2\c(=O)s/c(=C(\C#N)C(=O)N3NC(=O)C4C5c6ccccc6C(c6ccccc65)C4C3=O)n2-c2ccccc2)cc1` (stereo unspecified), the values for the zone of inhibition at 2000 µg/mL in the experiment with Bacillus thuringiensis [1] and in the experiment on Escherichia coli [2] were 11 mm and 13 mm, respectively.
On the same counts, the results for `N#C/C(C(=O)N1NC(=O)C2C3c4ccccc4C(c4ccccc43)C2C1=O)=c1\sc(=O)/c(=C2\C(=O)Nc3ccccc32)n1-c1ccccc1` (stereo unspecified) are 15 mm and 15 mm.
In the case of `N#C/C(C(=O)N1NC(=O)C2C3c4ccccc4C(c4ccccc43)C2C1=O)=c1\sc(=O)c(=C2C(=O)c3ccccc3C2=O)n1-c1ccccc1` (stereo unspecified), the MIC against Bacillus thuringiensis [3] was determined as 50 µg/mL (≈ 74.1 µM); in the experiment on Escherichia coli [4], 12.5 µg/mL (≈ 18.5 µM). Further, the results for the zone of inhibition at 2000 µg/mL in the experiment with Bacillus thuringiensis [1] and with Escherichia coli [2] were 19 mm and 25 mm, respectively.
Consider `N#C/C(C(=O)N1NC(=O)C2C3c4ccccc4C(c4ccccc43)C2C1=O)=C1\SC=C(c2ccccc2)N1c1ccccc1` (stereo unspecified), for which the MIC in the experiment on Bacillus thuringiensis [3] and against Escherichia coli [4] was 6 µg/mL (≈ 10.1 µM) in each case. The zone of inhibition at 2000 µg/mL in the experiment on Bacillus thuringiensis [1] came out at 39 mm; in the experiment on Escherichia coli [2] it was 40 mm.
For `Nc1c(C(=O)c2ccccc2)sc(Nc2ccccc2)c1C(=O)N1NC(=O)C2C3c4ccccc4C(c4ccccc43)C2C1=O` (stereo unspecified), the MIC with Bacillus thuringiensis [3] is 50 µg/mL (≈ 81.9 µM); with Escherichia coli [4], 12.5 µg/mL (≈ 20.5 µM). Moreover, the zone of inhibition at 2000 µg/mL was 17 mm in the experiment with Bacillus thuringiensis [1] and 20 mm in the experiment with Escherichia coli [2].
Take `N#C/C(C(=O)N1NC(=O)C2C3c4ccccc4C(c4ccccc43)C2C1=O)=C(\S)Nc1ccccc1` (stereo unspecified): the MIC in the experiment with Bacillus thuringiensis [3] and with Escherichia coli [4] was 12.5 µg/mL (≈ 25.4 µM) throughout. The zone of inhibition at 2000 µg/mL with Bacillus thuringiensis [1] and in the experiment with Escherichia coli [2] was 22 mm throughout.
`N#C/C(C(=O)N1NC(=O)C2C3c4ccccc4C(c4ccccc43)C2C1=O)=C1\SCC(=O)N1c1ccccc1` (stereo unspecified): the MIC in the experiment with Bacillus thuringiensis [3] and in the experiment with Escherichia coli [4] was 12.5 µg/mL (≈ 23.5 µM) in each case. In addition, the zone of inhibition at 2000 µg/mL was determined as 24 mm in the experiment on Bacillus thuringiensis [1] and 26 mm in the experiment on Escherichia coli [2].
With `CN(C)/C=N/N1C(=O)C2C3c4ccccc4C(c4ccccc43)C2C1=O` (stereo unspecified), the MIC was 50 µg/mL (≈ 145 µM) with Bacillus thuringiensis [3] and 12.5 µg/mL (≈ 36.2 µM) against Escherichia coli [4]. Moreover, the zone of inhibition at 2000 µg/mL with Bacillus thuringiensis [1] worked out at 20 mm; in the experiment on Escherichia coli [2], 21 mm.
`CC(=O)c1sc(Nc2ccccc2)c(C(=O)N2NC(=O)C3C4c5ccccc5C(c5ccccc54)C3C2=O)c1N` (stereo unspecified): the zone of inhibition at 2000 µg/mL came to 15 mm in the experiment on Bacillus thuringiensis [1] and 13 mm with Escherichia coli [2].
Regarding `N#Cc1sc(Nc2ccccc2)c(C(=O)N2NC(=O)C3C4c5ccccc5C(c5ccccc54)C3C2=O)c1N` (stereo unspecified), in the experiment on Escherichia coli [4], the MIC is 12.5 µg/mL (≈ 23.5 µM). Also, in the experiment on Escherichia coli [2], the zone of inhibition at 2000 µg/mL stood at 20 mm.
`N#C/C(C(=O)N1NC(=O)C2C3c4ccccc4C(c4ccccc43)C2C1=O)=C1/Nc2ccccc2S1` (stereo unspecified): the MIC against Bacillus thuringiensis [3] stood at 6 µg/mL (≈ 12.2 µM); against Escherichia coli [4], 12.5 µg/mL (≈ 25.5 µM). The zone of inhibition at 2000 µg/mL with Bacillus thuringiensis [1] was 30 mm; in the experiment with Escherichia coli [2], 26 mm.
As to `CC1=CS/C(=C(\C#N)C(=O)N2NC(=O)C3C4c5ccccc5C(c5ccccc54)C3C2=O)N1c1ccccc1` (stereo unspecified), the MIC in the experiment with Bacillus thuringiensis [3] and in the experiment with Escherichia coli [4] was 12.5 µg/mL (≈ 23.6 µM) in each case. For the same compound, the zone of inhibition at 2000 µg/mL came out at 28 mm in the experiment on Bacillus thuringiensis [1] and 30 mm with Escherichia coli [2].
Turning to `Cc1csc(N2NC(=O)C3C4c5ccccc5C(c5ccccc54)C3C2=O)n1` (stereo unspecified), the MIC stood at 6 µg/mL (≈ 15.5 µM) against Bacillus thuringiensis [3] and 50 µg/mL (≈ 129 µM) with Escherichia coli [4]. The zone of inhibition at 2000 µg/mL with Bacillus thuringiensis [1] stood at 40 mm; in the experiment with Escherichia coli [2] it was 16 mm.
Regarding `N#C/C(C(=O)N1NC(=O)C2C3c4ccccc4C(c4ccccc43)C2C1=O)=C1\SC(=O)CN1c1ccccc1` (stereo unspecified), the zone of inhibition at 2000 µg/mL with Bacillus thuringiensis [1] turned out to be 17 mm; in the experiment with Escherichia coli [2], 18 mm.
For the compound `O=C1NN(c2nc(-c3ccccc3)cs2)C(=O)C2C3c4ccccc4C(c4ccccc43)C12` (stereo unspecified), the MIC against Bacillus thuringiensis [3] amounted to 12.5 µg/mL (≈ 27.8 µM); against Escherichia coli [4], 50 µg/mL (≈ 111 µM). The figures for the zone of inhibition at 2000 µg/mL in the experiment on Bacillus thuringiensis [1] and with Escherichia coli [2] were 23 mm and 15 mm, respectively.
In the case of `O=C1CSC(N2NC(=O)C3C4c5ccccc5C(c5ccccc54)C3C2=O)=N1` (stereo unspecified), the MIC with Bacillus thuringiensis [3] and against Escherichia coli [4] was 12.5 µg/mL (≈ 32.1 µM) in each case. For the same compound, the figures for the zone of inhibition at 2000 µg/mL in the experiment with Bacillus thuringiensis [1] and with Escherichia coli [2] were 24 mm and 26 mm, respectively.
On to `O=C1NN(c2nc(-c3ccccc3)c(Br)s2)C(=O)C2C3c4ccccc4C(c4ccccc43)C12` (stereo unspecified), for which the zone of inhibition at 2000 µg/mL with Escherichia coli [2] stood at 12 mm.
Take `N#C/C(C(=O)N1NC(=O)C2C3c4ccccc4C(c4ccccc43)C2C1=O)=C1\SCCN1c1ccccc1` (stereo unspecified): the MIC with Bacillus thuringiensis [3] was 12.5 µg/mL (≈ 24.1 µM); with Escherichia coli [4], 50 µg/mL (≈ 96.4 µM). Moreover, the zone of inhibition at 2000 µg/mL was determined as 22 mm in the experiment on Bacillus thuringiensis [1] and 15 mm in the experiment on Escherichia coli [2].
The matching figures for `N#C/C(C(=O)N1NC(=O)C2C3c4ccccc4C(c4ccccc43)C2C1=O)=C1\SCCCN1c1ccccc1` (stereo unspecified): 50 µg/mL (≈ 93.9 µM), 12.5 µg/mL (≈ 23.5 µM), 19 mm and 25 mm.
On the same counts, the results for `CC1(C)S[C@@H]2[C@H](NC(=O)[C@H](N)c3ccccc3)C(=O)N2[C@H]1C(=O)O` [AMPICILLIN] are 12.5 µg/mL (≈ 35.8 µM), 12.5 µg/mL (≈ 35.8 µM), 18 mm and 19 mm.
The matching figures for `O=C(N[C@H](CO)[C@H](O)c1ccc([N+](=O)[O-])cc1)C(Cl)Cl` [CHLORAMPHENICOL]: 12.5 µg/mL (≈ 38.7 µM), 12.5 µg/mL (≈ 38.7 µM), 23 mm and 19 mm.
